Reference: patent publication US20080188562A1, “TREATING […] USING PRODRUGS OF […] PREGABALIN” (priority 2006, published 2008)

How the values were obtained:
[1] = system: acoustic trauma-induced tinnitus; details: animals; Bauer and Brozoski 2001; cited from earlier work
tinnitus = details: doses up to 2,400 mg/day; Bauer and Brozoski 2006; cited from earlier work
[2] = cited from earlier work
[3] = Randomized, crossover, fed/fasted single-dose pharmacokinetics study of oral sustained release tablets of compound (3); format: in vivo, human; details: tablets 2×600 mg oral
Method: A randomized, crossover, fed/fasted single-dose study of the safety, tolerability, and pharmacokinetics of oral administration of 1-{[(α-isobutanoyloxyethoxy)carbonyl]aminomethyl}-1-cyclohexane acetic acid (3) in healthy adult subjects was conducted. The oral sustained release dosage form of Example 6 was used in this study. The study was designed to evaluate the performance of this formulation in humans in comparison with the commercial gabapentin capsule formulation (Neurontin®, Pfizer). Twelve healthy adult volunteers (7 males and 5 females) participated in the study. Mean body weight was 75.6 kg. All subjects received two different treatments in a random order with a one-week washout between treatments.
Blood and plasma samples were collected from all subjects prior to dosing, and at 0.5, 1, 1.5, 2, 3, 4, 6, 8, 12, 18, 24, and 36 hours after dosing. Urine samples were collected from all subjects prior to dosing, and complete urine output was obtained at the 0-4 h, 4-8 h, 8-12 h, 12-18 h, 18-24 h, and 24-36 h intervals after dosing. Blood samples were quenched immediately with methanol and stored frozen at <70° C. Sample aliquots were prepared for analysis of gabapentin and compound (3) using sensitive and specific LC/MS/MS methods.

Compound | Attenuation of acoustic trauma-induced tinnitus [1] | Efficacy in treating tinnitus (tinnitus) | Typical Tmax of immediate release gabapentin [2] | AUC of compound (3) in blood as percent of corresponding AUC of gabapentin in blood ([3]; fasted) | Maximum concentration of intact compound (3) as percent of corresponding peak gabapentin concentration ([3]; fasted) | Maximum concentration of intact compound (3) in blood ([3]; fasted) | AUC of compound (3) in blood as percent of corresponding AUC of gabapentin in blood ([3]; fed) | Maximum concentration of intact compound (3) as percent of corresponding peak gabapentin concentration ([3]; fed) | Maximum concentration of intact compound (3) in blood ([3]; fed)
NCC1(CC(=O)O)CCCCC1 [gabapentin] | effective in reversibly attenuating acoustic trauma-induced tinnitus in animals | effective in treating tinnitus | 2 to 4 h |  |  |  |  |  | 
CC(OC(=O)NCC1(CC(=O)O)CCCCC1)OC(=O)C(C)C (stereo not drawn) [compound (3), 1-{[(α-Isobutanoyloxyethoxy)carbonyl]aminomethyl}-1-Cyclohexane Acetic Acid] |  |  |  | 0.3% | approximately 1.0% | 0.040 µg/mL | less than 0.1% | approximately 0.3% | 0.018 µg/mL
